According to PubChem BioAssay AID1903 (Southern Research Specialized Biocontainment Screening …, 2009):

What follows are compounds tested against Large T antigen (Simian virus 40) (UniProt P03070) (assay: TAg ATPase/helicase activity blockers – biochemical (AID 1903)). Conditions: SV40 large T antigen ATPase/helicase inhibition assay.
Sequence of Large T antigen (Simian virus 40) (P03070 whole entry, looked up): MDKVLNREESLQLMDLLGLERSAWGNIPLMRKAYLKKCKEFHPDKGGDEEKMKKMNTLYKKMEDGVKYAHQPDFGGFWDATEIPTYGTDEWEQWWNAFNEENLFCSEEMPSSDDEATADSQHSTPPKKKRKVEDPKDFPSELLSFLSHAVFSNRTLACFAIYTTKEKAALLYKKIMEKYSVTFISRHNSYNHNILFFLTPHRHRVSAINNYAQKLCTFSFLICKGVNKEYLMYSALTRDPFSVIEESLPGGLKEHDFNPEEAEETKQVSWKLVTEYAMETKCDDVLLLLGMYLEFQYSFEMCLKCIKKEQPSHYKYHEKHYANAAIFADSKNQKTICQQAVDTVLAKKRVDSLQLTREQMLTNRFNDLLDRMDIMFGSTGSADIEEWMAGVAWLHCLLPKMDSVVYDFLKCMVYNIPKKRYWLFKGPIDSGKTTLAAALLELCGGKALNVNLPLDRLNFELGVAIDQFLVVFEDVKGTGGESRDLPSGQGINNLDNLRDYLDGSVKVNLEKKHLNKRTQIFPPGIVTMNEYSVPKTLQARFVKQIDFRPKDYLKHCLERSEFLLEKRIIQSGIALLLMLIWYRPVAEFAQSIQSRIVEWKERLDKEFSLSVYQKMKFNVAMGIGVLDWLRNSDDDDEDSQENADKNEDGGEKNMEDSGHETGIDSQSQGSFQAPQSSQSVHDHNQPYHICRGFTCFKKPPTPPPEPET

Compound	IC50
C#CCOCCOCCOCCNc1nc(N2CCN(C(=O)CCCCCCCCCCNC(=O)[C@H]([C@@H](C)CC)n3cc(CCCCN=C(N)N)nn3)CC2)nc(N2CCN(C(=O)CCCCCCCCCCNC(=O)[C@H]([C@@H](C)CC)n3cc(CCCCN=C(N)N)nn3)CC2)n1	5.17 µM
C#CCOCCOCCOCCNc1nc(N2CCN(C(=O)CCCCCCCCCCNC(=O)[C@H]([C@@H](C)CC)n3cc(CCCCN=C(N)N)nn3)CC2)nc(N2CCN(C(=O)CCCCCCCCCCNC(=O)[C@H](CCCN=C(N)N)n3cc(C[C@@H](C)CC)nn3)CC2)n1	10.3 µM
O=C(O)c1cc[c]([Hg][Cl])cc1	1.27 µM
O=C(O)CCC1c2cc3c4cc2OC2Oc5cc6c(cc51)C(CCC(=O)O)c1cc5c7cc1OC(O6)c1cc6cc(c1)Oc1cc(cc(C(=O)O)c1)Oc1cc8cc(c1)C(Oc1cc(c(cc1C5CCC(=O)O)C3CCC(=O)O)OC(O4)c1cc(cc(c1)Oc1cc(cc(C(=O)O)c1)O8)Oc1cc(cc(C(=O)O)c1)Oc1cc(cc2c1)Oc1cc(cc(C(=O)O)c1)O6)O7 (centres undefined)	< 0.39 µM
C[c-]1[c-](C)[c-](C)[c-](C)[c-]1C.[Fe].c1cc2nccc(N3CCCC3)[c-]2c1 (centres undefined)	17.6 µM
CCCCC1(C)OC(=O)C(=Cc2ccc(-c3ccc(Cl)c(C(=O)O)c3)o2)C(=O)O1 (centres undefined)	17.2 µM
C#CCOCCOCCOCCNc1nc(N2CCN(C(=O)CCCCCCCCCCNC(=O)[C@H](CCCN=C(N)N)n3cc(C[C@@H](C)CC)nn3)CC2)nc(N2CCN(C(=O)CCCCCCCCCCNC(=O)[C@@H]([C@H](C)CC)n3cc(CCCCCN)nn3)CC2)n1	18.6 µM
C#CCOCCOCCOCCNc1nc(N2CCN(C(=O)CCCCCCCCCCNC(=O)[C@H]([C@@H](C)CC)n3cc(CCCCN=C(N)N)nn3)CC2)nc(N2CCN(C(=O)CCCCCCCCCCNC(=O)[C@H](CCCCN)n3cc(C[C@@H](C)CC)nn3)CC2)n1	13.1 µM
C[CH2][Hg][S]c1ccccc1C(=O)O	32.7 µM
